From ChEMBL document CHEMBL3351983, “Synthesis and biological evaluation of substituted 3-anilino-quinolin-2(1H)-ones as PDK1 inhibitors” (Bioorg Med Chem, 2014)

Legend:
[1] = biological target: T1, 3-phosphoinositide-dependent protein kinase 1 (Homo sapiens) (UniProt O15530); experiment: Inhibition of PDK1 (unknown origin) at 10 uM using PDKtide substrate and [gamma-32P]ATP by scintillation counting method
T1 sequence (whole entry): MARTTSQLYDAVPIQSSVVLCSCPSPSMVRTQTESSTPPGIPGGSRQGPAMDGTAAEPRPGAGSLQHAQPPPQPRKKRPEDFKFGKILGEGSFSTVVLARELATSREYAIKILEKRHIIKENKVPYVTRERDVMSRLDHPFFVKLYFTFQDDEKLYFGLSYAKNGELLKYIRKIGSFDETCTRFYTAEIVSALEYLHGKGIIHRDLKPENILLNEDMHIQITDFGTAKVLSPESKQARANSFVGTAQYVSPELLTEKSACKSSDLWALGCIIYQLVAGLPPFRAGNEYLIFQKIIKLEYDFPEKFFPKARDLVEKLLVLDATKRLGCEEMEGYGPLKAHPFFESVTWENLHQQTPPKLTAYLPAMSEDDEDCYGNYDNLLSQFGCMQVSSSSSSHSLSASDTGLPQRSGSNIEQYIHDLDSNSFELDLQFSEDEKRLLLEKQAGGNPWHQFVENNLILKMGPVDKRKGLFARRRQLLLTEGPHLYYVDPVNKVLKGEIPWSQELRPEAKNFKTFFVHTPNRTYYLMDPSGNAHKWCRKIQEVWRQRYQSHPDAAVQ

[2] = biological target: T2, 3-phosphoinositide-dependent protein kinase 1 (Homo sapiens, UniProt O15530); experiment: Inhibition of PDK1 (unknown origin) using PDKtide substrate and [gamma-32P]ATP by scintillation counting method
T2 sequence (O15530 whole entry): T1 sequence (whole entry)

Row | Compound | inhibition [1] [%] | IC50 [2] [nM]
1 | COc1cccc(-c2cccc(Nc3cc4cc(NC(=O)N5CCCC5)ccc4[nH]c3=O)c2)c1 | 29 | –
2 | O=C(Nc1ccc2[nH]c(=O)c(Nc3cccc(-c4nnn[nH]4)c3)cc2c1)N1CCCC1 | 14 | –
3 | NC(=O)Nc1ccc2[nH]c(=O)c(Nc3cc(CC(=O)NCCN4CCCCC4)cc(NC(=O)N4CCCC4)c3)cc2c1 | 40 | –
4 | CN[C@@H]1CCc2ccccc21 | – | 200

Now from value to compound, other results behind:

Row | inhibition [1] [%] | Compound | IC50 [2] [nM]
5 | 30 | N#Cc1cccc(Nc2cc3cc(NC(=O)N4CCCC4)ccc3[nH]c2=O)c1 | –
6 | 20 | CC(=O)Nc1cccc(Nc2cc3cc(NC(N)=O)ccc3[nH]c2=O)c1 | –
7 | 36 | O=C(Cc1ccc2[nH]c(=O)c(Nc3ccccc3)cc2c1)NCCN1CCCCC1 | –
8 | 40 | NC(=O)Nc1ccc2[nH]c(=O)c(Nc3cccc(NC(=O)N4CCCC4)c3)cc2c1 | –
9 | 23 | CCOc1cccc(Nc2cc3cc(NC(=O)N4CCCC4)ccc3[nH]c2=O)c1 | –
